Data set [1] is described as follows: Chemokine gradient assay (CXCL10 in lung and blood). The format is in vivo, mice. To be noted: 5× higher dose, free form. As for the experimental part:
The chemokine gradient assay was conducted on the early-stage lung metastasis model as follows. To evaluate chemokine gradient restoration capability of the therapy, early-stage spontaneous lung metastasis model was established as described in the previous context. One saline and three treatment groups (5× free CXCL10 chemokine, ImmunoBait with anti-ICAM-1, and erythrocyte hitchhiked ImmunoBait with anti-ICAM-1) were included into the study. Treatments were given starting one week after surgery. Two injection sets were given on day 7 and day 10 after surgery. (n=4-5 for each time point for each group). Mice were sacrificed at 20 mins and 6 h after the second injection, blood was collected by cardiac puncture and lungs were excised. Chemokine content in lungs and blood were quantified as described above.
The chemokine gradient assay was conducted on the early-stage lung metastasis model as follows. To evaluate chemokine gradient restoration capability of the therapy, early-stage spontaneous lung metastasis model was established as described in the previous context. One saline and three treatment groups (5× free CXCL10 chemokine containing 12.5 μg CXCL10, ImmunoBait with anti-ICAM-1 containing 2.5 μg CXCL10, and erythrocyte hitchhiked ImmunoBait with anti-ICAM-1 containing 2.5 μg CXCL10) were included into the study. […] Chemokine content in lungs and blood were quantified as described above.

The test system of data set [2] is B16F10-Luc melanoma lung metastasis. Nature of the data set: Efficacy in early-stage B16F10-Luc lung metastasis model. The format is in vivo, mice. The procedure: Efficacy studies on in vivo experimental lung metastasis model. Experimental lung metastasis model was established by intravenous injection of 1×10^5 B16F10-Luc cells in to the tail vein of female C57BL/6 mice. Efficacy for the treatment groups was evaluated in an early stage and late stage metastatic models. Mice were randomized based on the bioluminescence intensity in the lungs one day before the first injection of therapies. A control (Saline) group and three treatment groups (DOX-NPs, RBC-NPs, free DOX) at a dose of 5.2 mg/kg were evaluated for their efficacy (n=7 for all groups, unless otherwise specified).
For the early-stage metastatic model, treatments were given starting the day after the inoculation. Four injections were given over six days, i.e. day 1, 3, 5 and 7 after inoculation. On days 6, 8, 10, 12, 18, 23, 31 after inoculation, the mice were imaged using in vivo imaging (Perkin Elmer IVIS Spectrum™, MA, USA). Briefly, mice were injected intraperitoneally with 150 μL of 30 mg/mL Xenolight™-D-luciferin in saline. […] The average radiance (bioluminescence intensity) was evaluated using the software Living System®. The animals were further monitored for their survival.

Results on 2 compounds are retold here after US12667626B2, “Compositions and methods relating to erythrocytes with adhered particles” (PRESIDENT AND FELLOWS OF HARVARD COLLEGE, priority 2019, dated 2026).

For CXCL10 [free chemokine], the chemokine gradient established result in data set [1] was “weak chemokine gradient”.

Take `COc1cccc2c1C(=O)c1c(O)c3c(c(O)c1C2=O)C[C@@](O)(C(=O)CO)C[C@@H]3O[C@H]1C[C@H](N)[C@H](O)[C@H](C)O1` [free drug, doxorubicin]: the “lung metastasis burden inhibited” value in data set [2] (day 16, early-stage model) was found to be 94.2%. Moreover, the median survival time in data set [2] (early-stage model, control 29 days) is given as 32 days. Moreover, the body weight change result in data set [2] (treatment period, 5.2 mg/kg) is “sharp decline in the body weight”.
